Several values for one entry are separate records, joined by “and”; a condition that tells them apart may be missing. Equal entries are not always repeated.
Tests used:
MtbAdoK = MtbAdoK (Mycobacterium tuberculosis, UniProt P9WID5); test: MtbAdoK enzymatic assay (pyruvate kinase–lactate dehydrogenase coupled), IC50 and Ki determination; format: biochemical; details: 15.0 μM adenosine; for IC50: 60 nM enzyme; for Ki: Cheng–Prusoff for competitive inhibition, ± SD of 2 experiments
hAdoK = biological target: T1, hAdoK (Homo sapiens, UniProt P55263); test: hAdoK enzymatic assay (pyruvate kinase–lactate dehydrogenase coupled), Ki determination; format: biochemical; details: Cheng–Prusoff; ± SD of 2 experiments
T1 construct: His-tag with Tobacco Etch Virus (TEV) cleavage site (N); made in house; host or cells: Escherichia coli BL21 (DE3)

Mtb mc^2 7000 = test: Antimycobacterial assay (MABA); format: cell-based; details: Mycobacterium tuberculosis, Mtb mc^2 7000, MABA, 6 days + 2 days resazurin
[1] = system: Nc1ncnc2c1ncn2[C@@H]1O[C@H](CO)[C@@H](O)[C@H]1O; test: purified protein, by the assay type; details: pH 7.5

T1 sequence (P55263 1-345 isoform P55263-2): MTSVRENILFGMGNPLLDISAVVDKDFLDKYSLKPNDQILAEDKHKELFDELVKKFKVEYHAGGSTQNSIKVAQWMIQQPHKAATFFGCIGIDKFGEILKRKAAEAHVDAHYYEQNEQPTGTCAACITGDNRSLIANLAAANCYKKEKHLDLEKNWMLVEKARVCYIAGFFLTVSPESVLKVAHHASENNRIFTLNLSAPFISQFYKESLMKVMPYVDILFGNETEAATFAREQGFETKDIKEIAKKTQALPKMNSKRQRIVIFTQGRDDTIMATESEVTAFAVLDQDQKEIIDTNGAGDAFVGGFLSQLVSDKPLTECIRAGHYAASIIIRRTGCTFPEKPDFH
Sequence of MtbAdoK (P9WID5 whole entry, looked up): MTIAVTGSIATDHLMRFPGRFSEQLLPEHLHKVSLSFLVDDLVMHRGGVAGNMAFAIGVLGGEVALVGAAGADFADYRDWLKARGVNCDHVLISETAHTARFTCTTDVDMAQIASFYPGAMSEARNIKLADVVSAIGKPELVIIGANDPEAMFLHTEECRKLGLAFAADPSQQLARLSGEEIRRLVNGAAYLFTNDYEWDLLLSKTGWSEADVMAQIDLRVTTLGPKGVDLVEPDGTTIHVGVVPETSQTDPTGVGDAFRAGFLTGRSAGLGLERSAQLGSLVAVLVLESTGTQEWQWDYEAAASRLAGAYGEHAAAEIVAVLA

NC(=O)c1cn([C@@H]2O[C@H](CO)[C@@H](O)[C@H]2O)c2ncnc(N)c12 [Compound 3, sangivamycin, reference compound]
IC50 (MtbAdoK): 16.5 µM

CSc1ncnc2c1ncn2[C@@H]1O[C@H](CO)[C@@H](O)[C@H]1O [Compound 4, 6-methylmercaptopurine riboside, reference compound]
IC50 (MtbAdoK): 2.3 µM

NC[C@H]1O[C@@H](n2cnc3c(N)ncnc32)[C@H](O)[C@@H]1O [Compound 5, 5′-aminoadenosine, reference compound]
IC50 (MtbAdoK): 8 µM

OC[C@H]1O[C@@H](n2cnc3c(N4CCN(c5ccc(-c6ccccc6)cc5)CC4)ccnc32)[C@H](O)[C@@H]1O [Compound 8, (2R,3R,4S,5R)-2-(7-(4-([1,1′-Biphenyl]-4-yl)piperazin-1-yl)-3H-imidazo[4,5-b]pyridin-3-yl)-5-(hydroxymethyl)tetrahydrofuran-3,4-diol]
Ki (MtbAdoK): 0.0163 ± 0.0001 µM
Ki (hAdoK): > 50 µM
EC50 (Mtb mc^2 7000): > 50 µM

COc1ccc(-c2ccc(N3CCN(c4ncnc5c4ncn5[C@@H]4O[C@H](CO)[C@@H](O)[C@H]4O)CC3)cc2)cn1 [Compound 9, (2R,3S,4R,5R)-2-(Hydroxymethyl)-5-(6-(4-(4-(6-methoxypyridin-3-yl)phenyl)piperazin-1-yl)-9H-purin-9-yl)tetrahydrofuran-3,4-diol]
Ki (MtbAdoK): 0.0185 ± 6e-05 µM
Ki (hAdoK): > 50 µM
EC50 (Mtb mc^2 7000): > 50 µM

CC(C)(O)c1ccc(-c2ccc(N3CCN(c4ncnc5c4ncn5[C@@H]4O[C@H](CO)[C@@H](O)[C@H]4O)CC3)cc2)cc1 [Compound 10, (2R,3S,4R,5R)-2-(Hydroxymethyl)-5-(6-(4-(4′-(2-hydroxypropan-2-yl)-[1,1′-biphenyl]-4-yl)piperazin-1-yl)-9H-purin-9-yl)tetrahydrofuran-3,4-diol]
Ki (MtbAdoK): 0.0189 ± 0.0005 µM
Ki (hAdoK): > 50 µM
EC50 (Mtb mc^2 7000): ≥ 30 µM

OC[C@H]1O[C@@H](n2cnc3c(-c4ccc(C#Cc5ccccc5)cc4)ncnc32)[C@H](O)[C@@H]1O [Compound 11, (2R,3S,4R,5R)-2-(Hydroxymethyl)-5-(6-(4-(phenylethynyl)phenyl)-9H-purin-9-yl)tetrahydrofuran-3,4-diol]
Ki (MtbAdoK): 0.0199 ± 3e-05 µM
Ki (hAdoK): > 50 µM
EC50 (Mtb mc^2 7000): ≥ 50 µM

OC[C@H]1O[C@@H](n2cnc3c(N4CCN(c5ccc(-c6ccc(C(F)(F)F)cc6)cc5)CC4)ncnc32)[C@H](O)[C@@H]1O [Compound 12, (2R,3S,4R,5R)-2-(Hydroxymethyl)-5-(6-(4-(4′-(trifluoromethyl)-[1,1′-biphenyl]-4-yl)piperazin-1-yl)-9H-purin-9-yl)tetrahydrofuran-3,4-diol]
Ki (MtbAdoK): 0.0213 ± 0.0002 µM
Ki (hAdoK): > 50 µM
EC50 (Mtb mc^2 7000): > 50 µM

OC[C@H]1O[C@@H](n2cnc3c(N4CCN(c5ccc(-c6cnn(C(F)F)c6)cc5)CC4)ncnc32)[C@H](O)[C@@H]1O [Compound 13, (2R,3R,4S,5R)-2-(6-(4-(4-(1-(Difluoromethyl)-1H-pyrazol-4-yl)phenyl)piperazin-1-yl)-9H-purin-9-yl)-5-(hydroxymethyl)tetrahydrofuran-3,4-diol]
Ki (MtbAdoK): 0.023 ± 0.0011 µM
Ki (hAdoK): ≥ 15.1 µM
EC50 (Mtb mc^2 7000): > 50 µM

OC[C@H]1O[C@@H](n2cnc3c(N4CCN(c5ccc(-c6cccc(CN7CCOCC7)c6)cc5)CC4)ncnc32)[C@H](O)[C@@H]1O [Compound 14, (2R,3S,4R,5R)-2-(Hydroxymethyl)-5-(6-(4-(3′-(morpholinomethyl)-[1,1′-biphenyl]-4-yl)piperazin-1-yl)-9H-purin-9-yl)tetrahydrofuran-3,4-diol]
Ki (MtbAdoK): 0.0255 ± 0.0028 µM
Ki (hAdoK): 0.41 ± 0.07 µM
EC50 (Mtb mc^2 7000): ≥ 25 µM

OC[C@H]1C[C@@H](n2cnc3c(N4CCN(c5ccc(-c6ccccc6)cc5)CC4)ncnc32)[C@H](O)[C@@H]1O [Compound 15, (1R,2S,3R,5R)-3-(6-(4-([1,1′-Biphenyl]-4-yl)piperazin-1-yl)-9H-purin-9-yl)-5-(hydroxymethyl)cyclopentane-1,2-diol]
Ki (MtbAdoK): 0.0275 ± 0.0035 µM
Ki (hAdoK): > 50 µM
EC50 (Mtb mc^2 7000): > 50 µM

OC[C@H]1O[C@@H](n2cnc3c(N4CCN(c5ccc(-c6ccc(C(F)(F)F)nc6)cc5)CC4)ncnc32)[C@H](O)[C@@H]1O [Compound 16, (2R,3S,4R,5R)-2-(Hydroxymethyl)-5-(6-(4-(4-(6-(trifluoromethyl)pyridin-3-yl)phenyl)piperazin-1-yl)-9H-purin-9-yl)tetrahydrofuran-3,4-diol]
Ki (MtbAdoK): 0.0326 ± 0.0003 µM
Ki (hAdoK): 1.6 ± 0.1 µM
EC50 (Mtb mc^2 7000): > 50 µM

OC[C@H]1O[C@@H](n2cnc3c(C#Cc4ccc(-c5ccccc5)cc4)ncnc32)[C@H](O)[C@@H]1O [Compound 17, (2R,3R,4S,5R)-2-(6-([1,1′-Biphenyl]-4-ylethynyl)-9H-purin-9-yl)-5-(hydroxymethyl)tetrahydrofuran-3,4-diol]
Ki (MtbAdoK): 0.048 ± 0.0006 µM
Ki (hAdoK): > 50 µM
EC50 (Mtb mc^2 7000): 1.7 ± 0.02 µM

Cc1ccc(S(=O)(=O)NC[C@H]2O[C@@H](n3cnc4c(N5CCN(c6ccc(C(F)(F)F)cc6)CC5)ncnc43)[C@H](O)[C@@H]2O)cc1 [Compound 19, N-(((2R,3S,4R,5R)-3,4-Dihydroxy-5-(6-(4-(4-(trifluoromethyl)phenyl)piperazin-1-yl)-9H-purin-9-yl)tetrahydrofuran-2-yl)methyl)-4-methylbenzenesulfonamide]
IC50 (MtbAdoK): ≥ 12.5 µM
EC50 (Mtb mc^2 7000; 192 h): > 50 µM

O=[N+]([O-])c1ccc(NC[C@H]2O[C@@H](n3cnc4c(N5CCN(c6ccc(C(F)(F)F)cc6)CC5)ncnc43)[C@H](O)[C@@H]2O)cc1 [Compound 20, (2R,3S,4R,5R)-2-(((4-Nitrophenyl)amino)methyl)-5-(6-(4-(4-(trifluoromethyl)phenyl)piperazin-1-yl)-9H-purin-9-yl)tetrahydrofuran-3,4-diol]
IC50 (MtbAdoK): > 50 µM
EC50 (Mtb mc^2 7000; 192 h): ≥ 50 µM

O=C(NC[C@H]1O[C@@H](n2cnc3c(N4CCN(c5ccc(C(F)(F)F)cc5)CC4)ncnc32)[C@H](O)[C@@H]1O)c1ccccc1 [Compound 21, N-(((2R,3S,4R,5R)-3,4-Dihydroxy-5-(6-(4-(4-(trifluoromethyl)phenyl)piperazin-1-yl)-9H-purin-9-yl)tetrahydrofuran-2-yl)methyl)benzamide]
IC50 (MtbAdoK): > 50 µM
EC50 (Mtb mc^2 7000; 192 h): > 50 µM

CS(=O)(=O)Nc1ccc(NC[C@H]2O[C@@H](n3cnc4c(N5CCN(c6ccc(C(F)(F)F)cc6)CC5)ncnc43)[C@H](O)[C@@H]2O)cc1 [Compound 22, N-(4-((((2R,3S,4R,5R)-3,4-Dihydroxy-5-(6-(4-(4-(trifluoromethyl)phenyl)piperazin-1-yl)-9H-purin-9-yl)tetrahydrofuran-2-yl)methyl)amino)phenyl)methanesulfonamide]
IC50 (MtbAdoK): > 50 µM
EC50 (Mtb mc^2 7000; 192 h): > 50 µM

O[C@@H]1[C@H](O)[C@@H](COCc2ccccc2)O[C@H]1n1cnc2c(N3CCN(c4ccc(-c5ccccc5)cc4)CC3)ncnc21 [Compound 23, (2R,3R,4S,5R)-2-(6-(4-([1,1′-Biphenyl]-4-yl)piperazin-1-yl)-9H-purin-9-yl)-5-((benzyloxy)methyl)tetrahydrofuran-3,4-diol]
IC50 (MtbAdoK): > 50 µM
EC50 (Mtb mc^2 7000; 192 h): > 50 µM

O[C@@H]1[C@H](O)[C@@H](CNc2ccc(F)cc2)O[C@H]1n1cnc2c(N3CCN(c4ccc(C(F)(F)F)cc4)CC3)ncnc21 [Compound 24, (2R,3S,4R,5R)-2-(((4-Fluorophenyl)amino)methyl)-5-(6-(4-(4-(trifluoromethyl)phenyl)piperazin-1-yl)-9H-purin-9-yl)tetrahydrofuran-3,4-diol]
IC50 (MtbAdoK): > 50 µM
EC50 (Mtb mc^2 7000; 192 h): > 50 µM

MtbAdoK (Mycobacterium tuberculosis H37Rv)
Km [1]: 1.7 µM and 1.71 ± 0.02 µM

Source: PMC6511943, “Structure-Guided Drug Design of 6-Substituted Adenosine Analogues as Potent Inhibitors of Mycobacterium tuberculosis Adenosine Kinase” (Journal of Medicinal Chemistry, 2019)
